Data: US20230382915A1, “GCN2 AND PERK KINASE INHIBITORS AND METHODS OF USE THEREOF” (Deciphera Pharmaceuticals, LLC, priority 2021, published 2023)

Legend:
Assay type in all cases: cell-based
[1] = tested on: phospho-GCN2 (Thr899) in HCT116 colorectal cancer cells; assay: HCT116 amino acid starved (-AA) phospho-GCN2 Western blot; conditions: Homo sapiens, HCT-116, 4 h, read-out: HCT116 -AA pGCN2 Western Blot
Procedure: HCT116 colorectal cancer cells (catalog #CCL-247) were obtained from the American Type Culture Collect (ATTC, Manassas, VA). Briefly, cells were grown in RPMI 1640 supplemented with 10% heat inactivated fetal bovine serum (Invitrogen, Carlsbad, CA) and 1% Penicillin/Streptomycin/L-Glutamine at 37° C., 5% CO2, and 95% humidity. Cells were expanded until reaching 70-95% confluency at which point they were subcultured or harvested for assay use. Cells were seeded in 12-well culture plate at five hundred thousand cells per well in 1 mL complete growth medium and incubated overnight at 37° C., 5% CO2, and 95% humidity. The next day each well was replaced with 1 mL Earle's Balanced Salt Solution (EBSS, Invitrogen, Carlsbad, CA) supplemented with 10% Dialyzed Fetal Bovine Serum, 5.5 mM Glucose, 1% Penicillin/Streptomycin and 1% Vitamin solution (thermo #11120052). A serial dilution of test compound was dispensed into well. Plates were incubated for 4 h at 37° C., 5% CO2, and 95% humidity. […] Western blot was performed on each lysate to quantify phospho-GCN2 (Thr899), total GCN2, ATF4 and beta-Actin. […] Data were analyzed using GraphPad Prism software (GraphPad, San Diego, CA) to calculate IC50 values.

[2] = tested on: H929 Multiple Myeloma cells; assay: Cell proliferation, combination with standard of care, H929; conditions: Homo sapiens, NCI-H929; with 3 nM bortezomib, 96 h, FIG. 6B; read-out: inhibition of cell proliferation IC50, combination treatment
Procedure: H929, RPMI8226, GA-10 and DoHH-2 cells (catalog #CRL-9068) were obtained from the American Type Culture Collection (ATTC, Manassas, VA). H929 Cells were maintained in RPMI-1640 medium supplemented with 20% heat-inactivated fetal bovine serum (catalog #A3840002, ThermoFisher Scientific, Waltham, MA), 1% Penicillin/Streptomycin/L-Glutamine (catalog #10378016, ThermoFisher Scientific, Waltham, MA), and 0.05 mM 2-mercaptoethanol (catalog #21985-023, ThermoFisher Scientific, Waltham, MA). […]
For cell proliferation assay appropriate number of cells (Forty thousand cells for H929. Twenty thousand cells for RPMI8226 and GA-10. Eight thousand cells for DoHH-2) were seeded per well in 200 μL in respective medium were dispensed into a 96-well black clear bottom plate. […] Plates were read on a Synergy2 or equivalent reader (Biotek, Winooski VT) using an excitation of 540 nm and an emission of 600 nm. At the end of the incubation of DoHH-2, cell viability was determined using CellTiter-Glo® assay (Promega, Madison, WI). Luminescence was measured using EnVision MultiLabel Reader (PerkinElmer, Waltham, MA). Data was analyzed using GraphPad Prism software (GraphPad, San Diego, CA) to calculate IC50 values.

H2030 spheroids = assay: Spheroid Western blot assay, H2030
Procedure: (§1) NSCLC cell lines H358 (catalog #CRL-5807) and H2030 (catalog #CRL-5914), and fibrosarcoma cell line HT-1080 (catalog […]) were obtained from the American Type Culture Collect (ATTC, Manassas, VA). Cells were grown in RPMI-1640 medium supplemented with 10% heat-inactivated fetal bovine serum and 1% Penicillin/Streptomycin/L-Glutamine (Invitrogen, Carlsbad, CA) at 37° C., 5% CO2, and 95% humidity and maintained at 50-80% confluency until use. Cells were plated at 500,000 cells/well in 24-well Elplasia plates (Corning, Glendale, AZ) with complete growth media at 1 mL/well and incubated overnight at 37° C., 5% CO2, and 95% humidity to form spheroids. The next day, serial dilutions of test compounds were prepared in complete growth media and 500 μL existing media was removed from each well and replaced with fresh media containing compound titers. Spheroids were then incubated with test compounds for 4 hours or 24 hours under the same conditions. […] Western blots were performed to quantify phospho-GCN2 (R&D Systems, Minneapolis, MN), ATF4, CHOP, cleaved PARP, cleaved Caspase 3 and 7, and beta-Actin (Cell Signaling Technology, Danvers, MA). […]

H358 spheroids = assay: Spheroid Western blot assay, H358
Procedure: as §1

For Cn1cc(-c2cccc(NS(=O)(=O)c3cc(Cl)cc(CO)c3Cl)c2F)c2c(N)ncnc21 [Example 2, N-(3-(4-amino-7-methyl-7H-pyrrolo[2,3-d]pyrimidin-5-yl)-2-fluorophenyl)-2,5-dichloro-3-(hydroxymethyl)benzenesulfonamide], the IC50 [1] was ≤ 100 nM, the IC50 [2] was 6 nM and the “upregulation of ATF4 (Western blot quantification)” value (H2030 spheroids) was “up to 20 fold”. For the same compound, the “upregulation of ATF4 (Western blot quantification)” value (H358 spheroids) was ≤ 12 fold.
